# Reference: patent publication US20100048575A1, “NOVEL TETRACYCLIC INHIBITORS OF CYSTEINE PROTEASES, THE PHARMACEUTICAL COMPOSITIONS THEREOF AND THEIR THERAPEUTIC APPLICATIONS” (priority 2006, published 2010)
# Tests used:
# [1] = tested on: HCT116 colon cancer cells; assay: HCT116 cell viability and proliferation assay (MTS); type: cell-based; details: Homo sapiens, HCT-116, 72 hours, mean of 3 independent experiments, read-out: HCT116 GI50 D3
# Protocol: HCT116 colon cancer cells were obtained from ATCC (American Type Culture Collection), and maintained in Mc Coy's 5A medium containing 10% FBS, 3 mM glutamine and 1% penicillin/streptomycin. Cells were incubated at 37° C. in a humidified atmosphere containing 5% CO2.
# Cell viability was assayed using the MTS technique in 96-well culture plates (CellTiter 96® Aqueous Non-Radioactive Cell Proliferation Assay, Promega) according to the manufacturer's instructions. MTS (3-(4,5-dimethylthiazol-2-yl)-5-(3-carboxymethoxyphenyl)-2-(4-sulfophenyl)-2H-tetrazolium) is a MTT-derived tetrazolium that is reduced in metabolically active cells into a soluble, cell-permeant formazan. The amount of formazan, detected by its absorbance at 492 nm is proportional to the number of living, metabolically active cells.
# 10^3 HCT116 cells were seeded per well. 24 hours later, the medium was changed and the cells treated in triplicate with the following concentrations of each compound: 10 μM-3.33 μM-1.11 μM-370 nM-123 nM-41 nM-14 nM and 5 nM. The compounds were diluted in 100% DMSO, whose final concentration on cells was kept at 0.5%.
# Cells were incubated with the compounds for 72 hours, and their viability then assayed by the addition of MTS for 2 hours. Absorbance at 492 nm was measured directly from the 96-well culture plates. GI50 (Growth Inhibition 50) concentrations for each compound were calculated using a sigmoidal variable slope fit (Prism 4.0, Graphpad Softwares). Values represent mean of 3 independent experiments.
# [2] = biological target: T1, USP5 (Homo sapiens, UniProt P45974); assay: USP5 activity assay (Ub-AMC); type: biochemical; details: 400 nM Ub-AMC, 300 pM enzyme, 30 min pre-incubation, 60 min at 37° C., sigmoidal fit; read-out: USP5 (inhibition of cysteine protease activity)
# T1 sequence (P45974 1-858): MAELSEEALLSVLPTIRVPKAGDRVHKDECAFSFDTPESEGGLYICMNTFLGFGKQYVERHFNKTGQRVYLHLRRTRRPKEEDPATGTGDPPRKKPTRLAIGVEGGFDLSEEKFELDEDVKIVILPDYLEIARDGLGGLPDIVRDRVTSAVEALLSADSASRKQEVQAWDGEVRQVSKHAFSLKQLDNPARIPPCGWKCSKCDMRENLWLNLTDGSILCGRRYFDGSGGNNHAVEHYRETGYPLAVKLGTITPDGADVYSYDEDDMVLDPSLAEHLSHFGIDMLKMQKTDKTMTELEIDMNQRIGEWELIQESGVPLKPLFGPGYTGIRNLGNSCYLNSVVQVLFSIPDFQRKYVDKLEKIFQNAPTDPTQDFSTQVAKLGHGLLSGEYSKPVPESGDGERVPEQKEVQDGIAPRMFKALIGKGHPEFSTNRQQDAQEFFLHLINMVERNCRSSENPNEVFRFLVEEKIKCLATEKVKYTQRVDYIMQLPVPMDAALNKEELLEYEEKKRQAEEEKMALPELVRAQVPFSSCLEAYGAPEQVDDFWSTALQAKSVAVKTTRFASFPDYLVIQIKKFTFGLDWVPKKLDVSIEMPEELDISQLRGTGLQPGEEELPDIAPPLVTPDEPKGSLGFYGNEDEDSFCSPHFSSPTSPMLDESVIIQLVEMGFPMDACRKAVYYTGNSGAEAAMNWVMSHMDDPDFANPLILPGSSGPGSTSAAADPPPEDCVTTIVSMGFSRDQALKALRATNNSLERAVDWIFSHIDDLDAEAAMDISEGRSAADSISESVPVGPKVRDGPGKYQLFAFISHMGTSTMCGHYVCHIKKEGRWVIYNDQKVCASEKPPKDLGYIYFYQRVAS
# Protocol: USP5 was diluted in USP buffer (50 mM Tris HCl; 0.5 mM EDTA; 5 mM DTT; 0.01% Triton X-100; Bovine Serum Albumin 0.05 mg.ml^−1 pH7.6). Compounds stocks (100 mM) were stored at −20° C. in DMSO.
# Reactions were performed as duplicates in Black LJL 96 well plates (HE microplates; Molecular Devices; 20 μl final reaction volume). The substrate concentration for USP5 was 400 nM Ub-AMC (Boston Biochem). The concentrations of the enzyme (USP5) in specificity assays was 300 pM. The concentrations were determined in order to perform specificity assays under initial velocities at fixed substrate concentration. Compounds were pre-incubated with enzymes for 30 minutes at 25° C. Reactions were initiated by addition of substrate to the plates containing the enzymes (+/−compounds) diluted in assay buffer. Reactions were incubated for 60 minutes at 37° C. Reactions were stopped by adding acetic acid (100 mM final). Readings were performed on a Pherastar Fluorescent Reader (BMG). λ Emission 380 nm; λ Excitation=460 nm. Data (mean values +/−standard deviation) were analyzed as % of control (no compound) and plotted as percentage versus the Log of the compound concentration using GraphPad (Prism). Data were fitted to a sigmoidal model (variable slope).
GI50 [1],IC50 [2],SMILES
1910 nM,–,"CCc1nnc2nc3c(nn12)-c1ccccc1C3=NOCc1ccccc1 (mixture of isomers) [10h, 3-Ethyl-1,2,3a,4,10-pentaaza-cyclopenta[b]fluoren-9-one O-benzyl-oxime]"
1400 nM,1800 nM,"CON=C1c2ccccc2-c2nn3c(C)nnc3nc21 (mixture of isomers) [5a, 3-Methyl-1,2,3a,4,10-pentaaza-cyclopenta[b]fluoren-9-one O-methyl-oxime]"
3360 nM,–,"CCc1nnc2nc3c(nn12)-c1ccccc1C3=NOC (mixture of isomers) [10b, 3-Ethyl-1,2,3a,4,10-pentaaza-cyclopenta[b]fluoren-9-one O-methyl-oxime]"
398 nM,54000 nM,"CCCCCCCCCCON=C1c2ccccc2-c2nn3nnnc3nc21 (mixture of isomers) [8a, 1,2,3,3a, 4,10-Hexaaza-cyclopenta[b]fluoren-9-one O-decyl-oxime]"
1640 nM,1150 nM,"C=CCON=C1c2ccccc2-c2nn3c(C)nnc3nc21 (mixture of isomers) [5b, 3-Methyl-1,2,3a,4,10-pentaaza-cyclopenta[b]fluoren-9-one O-allyl-oxime]"
3930 nM,–,"CCON=C1c2ccccc2-c2nn3c(CC)nnc3nc21 (mixture of isomers) [10d, 3-Ethyl-1,2,3a,4,10-pentaaza-cyclopenta[b]fluoren-9-one O-ethyl-oxime]"
96 nM,–,"C=CCON=C1c2ccccc2-c2nn3nnnc3nc21 (mixture of isomers) [compound 6, 1,2,3,3a,4,10-hexaaza-cyclopenta[b]fluoren-9-one O-allyl-oxime]"
2100 nM,1200 nM,"C=CCON=C1c2ccccc2-c2nn3c(CC)nnc3nc21 (mixture of isomers) [10f, 3-Ethyl-1,2,3a,4,10-pentaaza-cyclopenta[b]fluoren-9-one O-allyl-oxime]"
265 nM,470 nM,"c1ccc(OCCCON=C2c3ccccc3-c3nn4nnnc4nc32)cc1 (mixture of isomers) [8c, 1,2,3,3a,4,10-Hexaaza-cyclopenta[b]fluoren-9-one O-(3-phenoxy-propyl)-oxime]"
273 nM,–,"COCCON=C1c2ccccc2-c2nn3nnnc3nc21 (mixture of isomers) [8b, 1,2,3,3a, 4,10-Hexaaza-cyclopenta[b]fluoren-9-one O-(2-methoxy-ethyl)-oxime]"
363 nM,–,"ON=C1c2ccccc2-c2nn3nnnc3nc21 (mixture of isomers) [compound 7, 1,2,3,3a,4,10-hexaaza-cyclopenta[b]fluoren-9-one oxime]"
1010 nM,1420 nM,"C=CCON=C1c2ccccc2-c2nn3c(CCCC)nnc3nc21 (mixture of isomers) [5d, 3-Butyl-1,2,3a,4,10-pentaaza-cyclopenta[b]fluoren-9-one O-allyl-oxime]"
